The subject of test [1] is Salmonella typhimurium. Nature of the test: Antibacterial activity against Salmonella typhimurium assessed as growth inhibition at 1 mg/well after 24 hrs by Well method. The class given is functional, Salmonella enterica subsp. enterica serovar Typhimurium.
For test [2], the system named is Klebsiella pneumoniae. Nature of the test: Antibacterial activity against Klebsiella pneumoniae assessed as growth inhibition at 1 mg/well after 24 hrs by Well method. The class given is functional.
Test [3] has as its system Bacillus subtilis. Nature of the test: Antibacterial activity against Bacillus subtilis after 24 hrs by two fold serial dilution method. The class given is functional.
For test [4], the system named is Staphylococcus aureus. Nature of the test: Antibacterial activity against Staphylococcus aureus assessed as growth inhibition at 1 mg/well after 24 hrs by Well method. The class given is functional.
Test [5] deals with Salmonella typhimurium. Nature of the test: Antibacterial activity against Salmonella typhimurium after 24 hrs by two fold serial dilution method. The class given is functional, Salmonella enterica subsp. enterica serovar Typhimurium. To be noted: Salmonella enterica.
For test [6], the system named is Proteus vulgaris. Nature of the test: Antibacterial activity against Proteus vulgaris after 24 hrs by two fold serial dilution method. The class given is functional.
Test [7] has as its system Aspergillus flavus. Nature of the test: Antifungal activity against Aspergillus flavus after 48 to 72 hrs by two fold serial dilution method. The class given is functional.
Test [8] concerns Proteus vulgaris. Nature of the test: Antibacterial activity against Proteus vulgaris assessed as growth inhibition at 1 mg/well after 24 hrs by Well method. The class given is functional.
The test system of test [9] is Klebsiella aerogenes. Put plainly: Antibacterial activity against Enterobacter aerogenes assessed as growth inhibition at 1 mg/well after 24 hrs by Well method. The class given is functional.
Test [10] relates to Micrococcus luteus. Put plainly: Antibacterial activity against Micrococcus luteus assessed as growth inhibition at 1 mg/well after 24 hrs by Well method. The class given is functional.
In test [11] the test system is Aspergillus flavus. Put plainly: Antifungal activity against Aspergillus flavus assessed as growth inhibition at 1 mg/well after 48 hrs by Well method. The class given is functional.
In test [12] the test system is Bacillus subtilis. Nature of the test: Antibacterial activity against Bacillus subtilis assessed as growth inhibition at 1 mg/well after 24 hrs by Well method. The class given is functional.
Test [13] deals with Micrococcus luteus. Nature of the test: Antibacterial activity against Micrococcus luteus after 24 hrs by two fold serial dilution method. The class given is functional.
Test [14] has as its system Staphylococcus aureus. Nature of the test: Antibacterial activity against Staphylococcus aureus after 24 hrs by two fold serial dilution method. The class given is functional.
For test [15], the system named is Shigella flexneri. Put plainly: Antibacterial activity against Shigella flexneri after 24 hrs by two fold serial dilution method. The class given is functional.
In test [16] the test system is Shigella flexneri. Put plainly: Antibacterial activity against Shigella flexneri assessed as growth inhibition at 1 mg/well after 24 hrs by Well method. The class given is functional.
Test [17] concerns Staphylococcus aureus. Nature of the test: Antibacterial activity against methicillin-resistant Staphylococcus aureus assessed as growth inhibition at 1 mg/well after 24 hrs by Well method. The class given is functional.
For test [18], the system named is Pseudomonas aeruginosa. Nature of the test: Antibacterial activity against Pseudomonas aeruginosa after 24 hrs by two fold serial dilution method. The class given is functional.
Test [19] has as its system Klebsiella aerogenes. Nature of the test: Antibacterial activity against Enterobacter aerogenes after 24 hrs by two fold serial dilution method. The class given is functional.
The subject of test [20] is Staphylococcus aureus. Nature of the test: Antibacterial activity against methicillin-resistant Staphylococcus aureus after 24 hrs by two fold serial dilution method. The class given is functional.
The test system of test [21] is Staphylococcus epidermidis. Nature of the test: Antibacterial activity against Staphylococcus epidermidis assessed as growth inhibition at 1 mg/well after 24 hrs by Well method. The class given is functional.
For test [22], the system named is Pseudomonas aeruginosa. Put plainly: Antibacterial activity against Pseudomonas aeruginosa assessed as growth inhibition at 1 mg/well after 24 hrs by Well method. The class given is functional.
Test [23] deals with Staphylococcus epidermidis. Nature of the test: Antibacterial activity against Staphylococcus epidermidis after 24 hrs by two fold serial dilution method. The class given is functional.
Test [24] concerns Malassezia pachydermatis. Nature of the test: Antifungal activity against Malassezia pachydermatis assessed as growth inhibition at 1 mg/well after 48 hrs by Well method. The class given is functional.
The test system of test [25] is Malassezia pachydermatis. Nature of the test: Antifungal activity against Malassezia pachydermatis after 48 to 72 hrs by two fold serial dilution method. The class given is functional.
In test [26] the test system is Candida albicans. Put plainly: Antifungal activity against Candida albicans assessed as growth inhibition at 1 mg/well after 48 hrs by Well method. The class given is functional.
For test [27], the system named is Candida albicans. Nature of the test: Antifungal activity against Candida albicans after 48 to 72 hrs by two fold serial dilution method. The class given is functional.
Test [28] concerns Klebsiella pneumoniae. Put plainly: Antibacterial activity against Klebsiella pneumoniae after 24 hrs by two fold serial dilution method. The class given is functional.

6 compounds from ChEMBL document CHEMBL3616371, “Synthesis of BF₃ catalyzed Mannich derivatives with excellent ee from phenylpropanolamine, study of their antimicrobial activity and molecular docking” (2015) can be followed below.

The structures appear in SMILES notation.

Consider `Cc1ccc(C(=O)CCN[C@@H](C)[C@H](O)c2ccccc2)cc1.Cl`, for which the “inhibition zone (IZ)” value in test [1] was 23 mm; in test [2], 13 mm; in test [4], 22 mm; in [8] it was 24 mm; in test [9], 24 mm; in test [10], 22 mm. Further, the “inhibition zone (IZ)” value in test [11] turned out to be 22 mm; in test [12], 18 mm; in test [16], 22 mm; in test [17], 23 mm; in test [21], 24 mm; in [22], 20 mm. Moreover, the MIC (commonly the smallest concentration in the dilution series that meets the test's criterion for growth inhibition) in test [3] is 6.25 µg/mL; in [5], 3.13 µg/mL; in test [6], 3.13 µg/mL; in test [7] it was 50 µg/mL; in [13], 3.13 µg/mL; in [14], 3.13 µg/mL. Besides, the MIC in [15], in test [18], in [19], in test [20] and in test [23] was 3.13 µg/mL throughout.

As to `C[C@@H](NCCC(=O)c1cccc([N+](=O)[O-])c1)[C@@H](O)c1ccccc1.Cl`, the “inhibition zone (IZ)” value in test [1] was found to be 18 mm; in [4], 14 mm; in test [24], 21 mm; in test [8], 20 mm; in test [9], 17 mm; in test [10], 18 mm. Besides, the “inhibition zone (IZ)” value in test [12] was 18 mm; in test [26] it was 15 mm; in test [16] it was 19 mm; in test [17] it was 16 mm; in [21], 18 mm; in test [22], 17 mm. Further, the MIC in test [3] was found to be 25 µg/mL; in test [5], 50 µg/mL; in test [6], 50 µg/mL; in [13], 50 µg/mL; in test [14], 50 µg/mL; in [25], 25 µg/mL. The MIC in test [15], in [18], in test [19], in test [20], in test [23] and in test [27] was 50 µg/mL throughout.

Turning to `C[C@H](NCCC(=O)c1cccc(O)c1)[C@H](O)c1ccccc1.Cl`, the “inhibition zone (IZ)” value in test [1] worked out at 22 mm; in test [2] it was 24 mm; in test [4], 24 mm; in test [8] it was 24 mm; in test [9], 22 mm; in [10] it was 35 mm. For the same compound, the “inhibition zone (IZ)” value in test [12] was 23 mm; in test [16] it was 22 mm; in test [17], 23 mm; in test [21], 28 mm; in test [22], 22 mm. Also, the MIC amounted to 12.5 µg/mL in test [3]; 25 µg/mL in test [5]; 25 µg/mL in [6]; 25 µg/mL in [28]; 3.13 µg/mL in test [13]; 25 µg/mL in [14]. The MIC was 25 µg/mL in [15]; 12.5 µg/mL in test [18]; 25 µg/mL in test [19]; 25 µg/mL in [20]; 6.25 µg/mL in [23].

As for `C[C@@H](NCCC(=O)c1cccc(O)c1)[C@@H](O)c1ccccc1.Cl`, the “inhibition zone (IZ)” value came out at 20 mm in [1]; 20 mm in test [2]; 20 mm in test [4]; 14 mm in test [24]; 22 mm in [8]; 21 mm in test [9]. The “inhibition zone (IZ)” value in [10] worked out at 34 mm; in [12], 20 mm; in test [16], 21 mm; in test [17], 22 mm; in [21], 24 mm; in test [22], 20 mm. Also, the MIC in test [3] turned out to be 25 µg/mL; in test [5] it was 50 µg/mL; in test [6], 25 µg/mL; in [28] it was 50 µg/mL; in [13], 3.13 µg/mL; in test [14], 50 µg/mL. The MIC in test [25] is above 50 µg/mL; in test [15] it was 25 µg/mL; in test [18] it was 25 µg/mL; in test [19], 25 µg/mL; in test [20], 25 µg/mL; in test [23] it was 25 µg/mL.

As for `Cc1ccc(C(=O)CCN[C@H](C)[C@@H](O)c2ccccc2)cc1.Cl`, the “inhibition zone (IZ)” value came out at 25 mm in test [1]; 15 mm in test [2]; 24 mm in test [4]; 28 mm in [8]; 27 mm in [9]; 22 mm in [10]. The “inhibition zone (IZ)” value was 20 mm in [11]; 22 mm in [12]; 20 mm in test [16]; 28 mm in test [17]; 31 mm in [21]; 23 mm in test [22]. The MIC in test [3] was found to be 12.5 µg/mL; in [5], 12.5 µg/mL; in [6] it was 6.25 µg/mL; in test [28] it was 50 µg/mL; in [7], 50 µg/mL; in test [13], 25 µg/mL. In addition, the MIC in [14] was found to be 25 µg/mL; in [15], 50 µg/mL; in test [18], 12.5 µg/mL; in [19] it was 12.5 µg/mL; in test [20], 6.25 µg/mL; in test [23], 3.13 µg/mL.

For `C[C@H](NCCC(=O)c1ccc(Cl)cc1Cl)[C@H](O)c1ccccc1.Cl`, the “inhibition zone (IZ)” value in test [1] amounted to 30 mm; in [4], 36 mm; in test [8], 32 mm; in [9], 34 mm; in test [10] it was 35 mm; in test [12], 30 mm. The “inhibition zone (IZ)” value was determined as 22 mm in test [26]; 31 mm in test [16]; 31 mm in test [17]; 35 mm in test [21]; 29 mm in [22]. In addition, the MIC is 25 µg/mL in test [3]; 25 µg/mL in test [5]; 25 µg/mL in test [6]; above 50 µg/mL in test [28]; 25 µg/mL in test [7]; 25 µg/mL in test [13]. Besides, the MIC in test [14], in test [15], in test [18], in test [19], in test [20] and in test [23] was 25 µg/mL in each case.
